A value given as a limit tells only on which side of the number the result lay.

The record followed here is US12679822B2, “Alkenyl pyrimidine compound, preparation method therefor, and application thereof” (Hongyun Biotech Co., Ltd., priority 2020, dated 2026).

What all share (type): cell-based
For test [1], the target named is BaF3 cell lines stably transfected with kinase EGFR Del (Homo sapiens, UniProt P00533, cells depend on it, form not given). Nature of the test: Growth inhibition of BaF3 cell line stably transfected with kinase EGFR Del (MTS). The note with it: 48 h, read-out: growth inhibitory activity IC50, Del. In outline: (§1)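 Read-out: MTS absorbance at 490 nm after 1-4 h reagent incubation. Cells exposed 48 h to compound (10 μM top, ⅓ steps, 8 points, 0.1% DMSO) in DMEM or RPMI 1640 with 10% FBS. IC50 derived from growth inhibition normalized to DMSO and blank wells.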
Sequence of BaF3 cell lines stably transfected with kinase EGFR Del (P00533 with tags, fused parts or gaps DEL746-750): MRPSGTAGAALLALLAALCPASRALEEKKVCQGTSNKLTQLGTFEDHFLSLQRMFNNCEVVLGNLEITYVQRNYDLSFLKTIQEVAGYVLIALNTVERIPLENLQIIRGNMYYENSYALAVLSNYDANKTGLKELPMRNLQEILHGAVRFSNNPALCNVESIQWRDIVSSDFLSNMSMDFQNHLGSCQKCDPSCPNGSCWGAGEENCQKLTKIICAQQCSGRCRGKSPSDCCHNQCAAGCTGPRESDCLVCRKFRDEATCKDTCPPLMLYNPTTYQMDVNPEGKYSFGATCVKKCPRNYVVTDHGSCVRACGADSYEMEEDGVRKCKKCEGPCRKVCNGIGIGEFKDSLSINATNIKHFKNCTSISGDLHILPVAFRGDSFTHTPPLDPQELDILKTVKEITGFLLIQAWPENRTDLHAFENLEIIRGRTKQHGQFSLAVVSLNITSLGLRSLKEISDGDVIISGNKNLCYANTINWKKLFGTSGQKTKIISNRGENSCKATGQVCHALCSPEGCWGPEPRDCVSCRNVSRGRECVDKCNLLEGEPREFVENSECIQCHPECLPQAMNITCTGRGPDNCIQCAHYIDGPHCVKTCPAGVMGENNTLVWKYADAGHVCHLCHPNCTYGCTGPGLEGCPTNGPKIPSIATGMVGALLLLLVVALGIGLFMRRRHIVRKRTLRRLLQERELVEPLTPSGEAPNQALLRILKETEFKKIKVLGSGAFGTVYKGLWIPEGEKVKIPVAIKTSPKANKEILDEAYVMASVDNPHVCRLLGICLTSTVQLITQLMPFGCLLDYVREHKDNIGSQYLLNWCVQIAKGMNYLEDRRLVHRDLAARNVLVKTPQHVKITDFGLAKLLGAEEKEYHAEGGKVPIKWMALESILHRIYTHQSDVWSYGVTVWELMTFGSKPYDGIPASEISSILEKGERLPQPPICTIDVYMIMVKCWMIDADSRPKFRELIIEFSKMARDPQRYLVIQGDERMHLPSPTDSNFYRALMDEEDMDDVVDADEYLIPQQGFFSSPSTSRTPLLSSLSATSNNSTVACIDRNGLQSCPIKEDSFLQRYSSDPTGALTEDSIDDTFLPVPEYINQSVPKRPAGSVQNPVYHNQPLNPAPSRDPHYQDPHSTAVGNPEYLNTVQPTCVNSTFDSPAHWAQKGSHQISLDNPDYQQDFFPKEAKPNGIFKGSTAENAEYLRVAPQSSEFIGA

Test [2] addresses BaF3 cell lines stably transfected with kinase EGFR L858R (Homo sapiens, UniProt P00533, L858R, cells depend on it). In words: Growth inhibition of BaF3 cell line stably transfected with kinase EGFR L858R (MTS). The note with it: 48 h, read-out: growth inhibitory activity IC50, L858R. The procedure, abridged: as §1
Test [3] addresses BaF3 cell lines stably transfected with kinase EGFR Del/T790M (Homo sapiens, UniProt P00533, T790M, cells depend on it, form not given). In words: Growth inhibition of BaF3 cell line stably transfected with kinase EGFR Del/T790M (MTS). The note with it: 48 h, read-out: growth inhibitory activity IC50, Del/T790M. The procedure, abridged:
as §1

Test [4] deals with BaF3 cell lines stably transfected with kinase EGFR L858R/T790M (Homo sapiens, UniProt P00533, T790M/L858R, cells depend on it). Nature of the test: Growth inhibition of BaF3 cell line stably transfected with kinase EGFR L858R/T790M (MTS). The note with it: 48 h, read-out: growth inhibitory activity IC50, L858R/T790M. The procedure, abridged: as §1
The target in test [5] is BaF3 cell lines stably transfected with kinase EGFR Del/T790M/C797S (Homo sapiens, UniProt P00533, T790M/C797S, cells depend on it, form not given). In words: Growth inhibition of BaF3 cell line stably transfected with kinase EGFR Del/T790M/C797S (MTS). The note with it: 48 h, read-out: growth inhibitory activity IC50, Del/T790M/C797S. The procedure, abridged: as §1
Sequence of BaF3 cell lines stably transfected with kinase EGFR Del/T790M/C797S (P00533 with tags, fused parts or gaps DEL746-750/T790M/C797S, form open): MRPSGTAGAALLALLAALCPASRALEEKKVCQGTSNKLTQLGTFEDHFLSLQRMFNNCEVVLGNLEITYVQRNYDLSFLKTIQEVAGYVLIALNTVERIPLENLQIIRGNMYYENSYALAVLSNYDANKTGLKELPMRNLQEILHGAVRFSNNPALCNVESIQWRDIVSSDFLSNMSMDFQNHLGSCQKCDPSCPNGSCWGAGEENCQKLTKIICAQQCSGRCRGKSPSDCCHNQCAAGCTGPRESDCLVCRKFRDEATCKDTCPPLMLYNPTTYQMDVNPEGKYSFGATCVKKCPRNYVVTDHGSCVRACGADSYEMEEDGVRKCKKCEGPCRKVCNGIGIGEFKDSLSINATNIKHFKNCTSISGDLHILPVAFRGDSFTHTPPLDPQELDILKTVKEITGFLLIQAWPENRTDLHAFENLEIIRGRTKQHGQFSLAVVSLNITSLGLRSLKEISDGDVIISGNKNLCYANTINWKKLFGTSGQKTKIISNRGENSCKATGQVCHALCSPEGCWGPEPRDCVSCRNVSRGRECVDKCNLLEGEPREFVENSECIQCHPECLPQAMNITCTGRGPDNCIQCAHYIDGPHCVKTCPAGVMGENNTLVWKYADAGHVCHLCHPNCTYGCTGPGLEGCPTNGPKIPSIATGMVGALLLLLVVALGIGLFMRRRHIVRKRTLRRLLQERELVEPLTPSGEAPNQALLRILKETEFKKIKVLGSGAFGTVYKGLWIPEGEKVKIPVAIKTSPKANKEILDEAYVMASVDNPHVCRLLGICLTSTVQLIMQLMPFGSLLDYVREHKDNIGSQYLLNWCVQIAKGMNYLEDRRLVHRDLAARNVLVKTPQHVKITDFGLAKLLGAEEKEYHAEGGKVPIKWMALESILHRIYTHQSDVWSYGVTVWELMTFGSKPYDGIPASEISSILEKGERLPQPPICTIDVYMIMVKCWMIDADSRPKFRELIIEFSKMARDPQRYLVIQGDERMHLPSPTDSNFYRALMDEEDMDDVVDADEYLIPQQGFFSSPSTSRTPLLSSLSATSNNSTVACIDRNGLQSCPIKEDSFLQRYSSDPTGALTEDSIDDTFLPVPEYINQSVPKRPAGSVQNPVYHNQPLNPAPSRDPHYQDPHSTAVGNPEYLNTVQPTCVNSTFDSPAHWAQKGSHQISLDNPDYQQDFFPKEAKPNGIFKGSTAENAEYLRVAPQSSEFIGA
Test [6] has as its target BaF3 cell lines stably transfected with kinase EGFR L858R/T790M/C797S (Homo sapiens, UniProt P00533, T790M/C797S/L858R, cells depend on it). Nature of the test: Growth inhibition of BaF3 cell line stably transfected with kinase EGFR L858R/T790M/C797S (MTS). The note with it: 48 h, read-out: growth inhibitory activity IC50, L858R/T790M/C797S. In outline: as §1

Sequence of BaF3 cell lines stably transfected with kinase EGFR L858R (P00533 whole entry L858R): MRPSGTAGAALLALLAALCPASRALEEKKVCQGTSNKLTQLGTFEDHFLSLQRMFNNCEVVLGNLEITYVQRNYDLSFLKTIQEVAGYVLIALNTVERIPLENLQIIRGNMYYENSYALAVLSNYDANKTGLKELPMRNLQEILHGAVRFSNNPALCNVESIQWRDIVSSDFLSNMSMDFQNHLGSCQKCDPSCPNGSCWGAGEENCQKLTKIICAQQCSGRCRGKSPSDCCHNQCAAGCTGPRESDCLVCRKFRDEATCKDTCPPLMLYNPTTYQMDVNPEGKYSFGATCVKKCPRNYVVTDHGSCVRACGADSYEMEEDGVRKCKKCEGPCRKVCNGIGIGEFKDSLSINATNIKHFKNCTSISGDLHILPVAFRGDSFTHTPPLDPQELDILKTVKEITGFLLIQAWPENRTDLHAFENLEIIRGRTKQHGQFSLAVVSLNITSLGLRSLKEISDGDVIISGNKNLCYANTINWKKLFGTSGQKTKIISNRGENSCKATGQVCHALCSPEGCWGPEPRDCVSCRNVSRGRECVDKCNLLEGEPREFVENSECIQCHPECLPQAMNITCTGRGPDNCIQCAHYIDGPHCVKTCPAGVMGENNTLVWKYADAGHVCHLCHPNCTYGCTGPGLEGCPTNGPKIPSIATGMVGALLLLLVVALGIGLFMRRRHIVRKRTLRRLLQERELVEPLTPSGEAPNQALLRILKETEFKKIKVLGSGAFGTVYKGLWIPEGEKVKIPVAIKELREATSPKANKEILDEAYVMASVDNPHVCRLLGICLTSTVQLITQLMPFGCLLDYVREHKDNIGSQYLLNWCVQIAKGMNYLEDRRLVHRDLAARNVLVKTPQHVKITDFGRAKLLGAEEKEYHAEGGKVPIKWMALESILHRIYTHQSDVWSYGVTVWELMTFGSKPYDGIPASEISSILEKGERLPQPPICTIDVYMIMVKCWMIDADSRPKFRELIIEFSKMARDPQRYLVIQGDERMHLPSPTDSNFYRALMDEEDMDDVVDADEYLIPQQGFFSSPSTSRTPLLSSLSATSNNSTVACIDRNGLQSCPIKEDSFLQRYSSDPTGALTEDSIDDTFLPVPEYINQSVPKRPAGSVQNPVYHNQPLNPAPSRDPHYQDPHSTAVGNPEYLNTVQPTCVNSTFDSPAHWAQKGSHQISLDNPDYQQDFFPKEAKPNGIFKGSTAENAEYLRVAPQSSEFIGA
Sequence of BaF3 cell lines stably transfected with kinase EGFR Del/T790M (P00533 with tags, fused parts or gaps DEL746-750/T790M, form open): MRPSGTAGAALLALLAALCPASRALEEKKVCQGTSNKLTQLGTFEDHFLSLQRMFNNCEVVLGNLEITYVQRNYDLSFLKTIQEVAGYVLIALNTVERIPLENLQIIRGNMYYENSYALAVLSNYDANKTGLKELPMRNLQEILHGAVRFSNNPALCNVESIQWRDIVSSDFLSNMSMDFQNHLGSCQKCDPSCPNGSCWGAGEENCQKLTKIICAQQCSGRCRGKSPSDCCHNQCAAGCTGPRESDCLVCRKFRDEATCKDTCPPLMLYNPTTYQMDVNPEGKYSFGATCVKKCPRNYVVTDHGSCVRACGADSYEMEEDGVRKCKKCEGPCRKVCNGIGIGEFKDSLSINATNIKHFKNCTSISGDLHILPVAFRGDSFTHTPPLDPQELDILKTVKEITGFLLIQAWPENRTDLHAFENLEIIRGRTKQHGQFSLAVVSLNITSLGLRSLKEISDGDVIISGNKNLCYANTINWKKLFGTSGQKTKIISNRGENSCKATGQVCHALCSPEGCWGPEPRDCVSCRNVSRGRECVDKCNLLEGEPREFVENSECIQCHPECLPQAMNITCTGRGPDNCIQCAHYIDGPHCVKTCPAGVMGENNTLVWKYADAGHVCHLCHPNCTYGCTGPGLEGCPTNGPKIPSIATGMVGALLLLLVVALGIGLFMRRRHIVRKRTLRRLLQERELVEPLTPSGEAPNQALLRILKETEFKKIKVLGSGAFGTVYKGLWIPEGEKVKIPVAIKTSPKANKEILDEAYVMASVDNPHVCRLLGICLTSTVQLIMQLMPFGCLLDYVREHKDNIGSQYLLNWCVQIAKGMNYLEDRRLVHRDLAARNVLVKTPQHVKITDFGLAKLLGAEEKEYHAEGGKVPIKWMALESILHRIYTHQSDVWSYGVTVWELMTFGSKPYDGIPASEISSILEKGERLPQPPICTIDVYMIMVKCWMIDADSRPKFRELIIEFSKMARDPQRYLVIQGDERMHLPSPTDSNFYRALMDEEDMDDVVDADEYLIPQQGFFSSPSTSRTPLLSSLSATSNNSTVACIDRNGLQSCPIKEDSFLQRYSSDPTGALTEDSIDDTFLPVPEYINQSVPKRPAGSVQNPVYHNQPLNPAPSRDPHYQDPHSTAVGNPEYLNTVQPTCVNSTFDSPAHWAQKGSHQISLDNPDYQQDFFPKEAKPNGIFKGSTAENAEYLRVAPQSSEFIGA

Turning to `CCc1cc(Nc2ncc(/C=C/C3CC3)c(Nc3ccc4nccnc4c3N(C)S(C)(=O)=O)n2)c(OC)cc1N1CCC(N2CCN(C)CC2)CC1` [II-28], the GI50 is no more than 50 nM in test [1]; 50 to 500 nM in test [2]; 500 to 2500 nM in test [3]; 500 to 2500 nM in test [4]; 500 to 2500 nM in test [5]; 500 to 2500 nM in test [6].
Take `C=C(C)c1cnc(Nc2ccc(N3CCC(N4CCN(C)CC4)CC3)c(CC)c2)nc1Nc1ccc2nccnc2c1N(C)S(C)(=O)=O` [II-24]: the GI50 in test [1] is no more than 50 nM; in test [2], no more than 50 nM; in test [3] it was no more than 50 nM; in test [4] it was no more than 50 nM; in test [5], 50 to 500 nM; in test [6] it was 50 to 500 nM.
On to `C=Cc1cnc(Nc2ccc(N3CCC(N4CCN(C)CC4)CC3)c(CC)c2)nc1Nc1ccc2nccnc2c1N(C)S(C)(=O)=O` [II-20], for which the GI50 in test [1], in test [2], in test [3], in test [4], in test [5] and in test [6] was no more than 50 nM each time.
For the compound `C=Cc1cnc(Nc2cc(CC)c(N3CCN(C)CC3)cc2OC)nc1Nc1ccc2nccnc2c1N(C)S(C)(=O)=O` [II-4], the GI50 in test [1], in test [2], in test [3], in test [4], in test [5] and in test [6] was no more than 50 nM throughout.
For `C=C(C)c1cnc(Nc2cc(CC)c(N3CCC(N4CCN(C)CC4)CC3)cc2OC)nc1Nc1ccc2nccnc2c1N(C)S(C)(=O)=O` [II-21], the GI50 in test [1], in test [2], in test [3], in test [4], in test [5] and in test [6] was no more than 50 nM in each case.
As for `C=Cc1cnc(Nc2cc(CC)c(N3CCC(N4CCN(C)CC4)CC3)cc2OC)nc1Nc1ccc2nccnc2c1N(C)S(=O)(=O)CC` [II-9], the GI50 in test [1] is 50 to 500 nM; in test [2], 50 to 500 nM; in test [3], no more than 50 nM; in test [4], 50 to 500 nM; in test [5], 50 to 500 nM; in test [6], no more than 50 nM.
Take `C=Cc1cnc(Nc2cc(CC)c(N3CCC(N4CCN(C)CC4)CC3)cc2OC)nc1Nc1ccc2nccnc2c1N(C)S(=O)(=O)C(F)(F)F` [II-8]: the GI50 in test [1], in test [2], in test [3], in test [4], in test [5] and in test [6] was 50 to 500 nM each time.
For the compound `C=Cc1cnc(Nc2cc(CC)c(N3CCN(C)CC3)cc2OC)nc1Nc1ccc2nccnc2c1P(C)(C)=O` [Compound I-4], the GI50 in test [1], in test [2], in test [3], in test [4], in test [5] and in test [6] was no more than 50 nM each time.
For the compound `C=Cc1cnc(Nc2ccc(N3CCC(N4CCN(C)CC4)CC3)c(CC)c2)nc1Nc1ccc2nccnc2c1P(C)(C)=O` [Compound I-18], the GI50 was 50 to 500 nM in test [1]; no more than 50 nM in test [2]; 50 to 500 nM in test [3]; 50 to 500 nM in test [4]; no more than 50 nM in test [5]; no more than 50 nM in test [6].
`C=Cc1cnc(Nc2cc(CC)c(N3CCC(C(C)C)C3)cc2OC)nc1Nc1ccc2nccnc2c1P(C)(C)=O` (stereo not drawn) [Compound I-3]: the GI50 in test [1] was 50 to 500 nM; in test [2], no more than 50 nM; in test [3], no more than 50 nM; in test [4], 50 to 500 nM; in test [5] it was no more than 50 nM; in test [6] it was no more than 50 nM.
With `C=Cc1cnc(Nc2cc(CC)c(N3CCN(C)CC3)cc2OC)nc1Nc1ccc2nccnc2c1S(=O)(=O)NC` [IV-15], the GI50 in test [1], in test [2], in test [3], in test [4], in test [5] and in test [6] was 50 to 500 nM each time.
On to `CCc1cc(Nc2ncc(/C=C/c3ccccc3)c(Nc3ccc4nccnc4c3N(C)S(C)(=O)=O)n2)c(OC)cc1N1CCC(N2CCN(C)CC2)CC1` [II-29], for which the GI50 fell in the range of 50 to 500 nM in test [1]; 50 to 500 nM in test [2]; 500 to 2500 nM in test [3]; 500 to 2500 nM in test [4]; 500 to 2500 nM in test [5]; 500 to 2500 nM in test [6].
As to `C=Cc1cnc(Nc2cc(F)c(N3CCC(N4CCN(C)CC4)CC3)c(F)c2)nc1Nc1ccc2nccnc2c1S(C)(=O)=O` [III-16], the GI50 in test [1] fell in the range of 500 to 2500 nM; in test [2] it was 500 to 2500 nM; in test [3], 50 to 500 nM; in test [4] it was 500 to 2500 nM; in test [5], 500 to 2500 nM; in test [6], 500 to 2500 nM.
Take `C=Cc1cnc(Nc2cn(CC)nc2C)nc1Nc1ccc2nccnc2c1N(C)S(C)(=O)=O` [II-67]: the GI50 in test [1], in test [2], in test [3], in test [4], in test [5] and in test [6] was 50 to 500 nM each time.
As to `C=Cc1cnc(Nc2cc3c(cc2F)CCN(C)C3)nc1Nc1ccc2nccnc2c1P(C)(C)=O` [Compound I-23], the GI50 in test [1] lay in the range of 50 to 500 nM; in test [2], 50 to 500 nM; in test [3] it was 50 to 500 nM; in test [4], 50 to 500 nM; in test [5], 500 to 2500 nM; in test [6], 50 to 500 nM.
Turning to `C=Cc1cnc(Nc2cc(CC)c(N3CCN(C)CC3)cc2OC)nc1Nc1ccc2nccnc2c1NS(C)(=O)=O` [II-41], the GI50 in test [1] was no more than 50 nM; in test [2], no more than 50 nM; in test [3], no more than 50 nM; in test [4], 50 to 500 nM; in test [5], no more than 50 nM; in test [6] it was no more than 50 nM.
Take `C=Cc1cnc(Nc2ccc(N3CCC(N4CCN(C)CC4)CC3)cc2OC)nc1Nc1ccc2nccnc2c1N(C)S(C)(=O)=O` [II-16]: the GI50 in test [1] lay within 50 to 500 nM; in test [2] it was 500 to 2500 nM; in test [3], 50 to 500 nM; in test [4], 500 to 2500 nM; in test [5], 50 to 500 nM; in test [6] it was 50 to 500 nM.
Turning to `C=C(C)c1cnc(Nc2cc(C3CC3)c(N3CCC(N4CCN(C)CC4)CC3)cc2OC)nc1Nc1ccc2nccnc2c1N(C)S(C)(=O)=O` [II-23], the GI50 in test [1] was no more than 50 nM; in test [2], no more than 50 nM; in test [3] it was no more than 50 nM; in test [4] it was no more than 50 nM; in test [5], 50 to 500 nM; in test [6] it was 50 to 500 nM.
As for `C=Cc1cnc(Nc2cc(CC)c(N3CCC(N4CCN(C)CC4)CC3)cc2OC)nc1Nc1ccc2nccnc2c1P(C)(C)=O` [Compound I-1], the GI50 in test [1], in test [2], in test [3], in test [4], in test [5] and in test [6] was no more than 50 nM each time.
As for `C=Cc1cnc(Nc2cc(CC)c(N3CCC(N4CCN(C)CC4)CC3)cc2OC)nc1Nc1ccc2nccnc2c1NS(C)(=O)=O` [II-32], the GI50 was no more than 50 nM in test [1]; no more than 50 nM in test [2]; no more than 50 nM in test [3]; 50 to 500 nM in test [4]; 50 to 500 nM in test [5]; 50 to 500 nM in test [6].
On to `C=Cc1cnc(Nc2cc(C)c(N3CCC(N4CCN(C)CC4)CC3)cc2OC)nc1Nc1ccc2nccnc2c1NS(=O)(=O)C(C)C` [II-43], for which the GI50 in test [1] fell in the range of 50 to 500 nM; in test [2] it was 50 to 500 nM; in test [3], 50 to 500 nM; in test [4], 500 to 2500 nM; in test [5], 50 to 500 nM; in test [6], 50 to 500 nM.
`C=Cc1cnc(Nc2cc(CC)c(N3CCC(N(C)C)C3)cc2OC)nc1Nc1ccc2nccnc2c1S(=O)(=O)NC` (stereo not drawn) [IV-14]: the GI50 in test [1], in test [2], in test [3], in test [4], in test [5] and in test [6] was 50 to 500 nM each time.
Regarding `C=Cc1cnc(Nc2cc(CC)c(N3CCC(N4CCN(C)CC4)CC3)cc2OC(F)(F)F)nc1Nc1ccc2nccnc2c1S(C)(=O)=O` [III-5], the GI50 is 500 to 2500 nM in test [1]; 500 to 2500 nM in test [2]; 500 to 2500 nM in test [3]; 50 to 500 nM in test [4]; 500 to 2500 nM in test [5]; 500 to 2500 nM in test [6].
For `C=Cc1cnc(Nc2cc(CC)c(N3CCC(N4CCN(C)CC4)CC3)nc2OC)nc1Nc1ccc2nccnc2c1P(C)(C)=O` [Compound I-5], the GI50 in test [1], in test [2], in test [3], in test [4], in test [5] and in test [6] was no more than 50 nM in each case.
In the case of `C=Cc1cnc(Nc2cc(CC3CC3)c(N3CCC(N4CCN(C)CC4)CC3)cc2OC)nc1Nc1ccc2nccnc2c1N(C)S(C)(=O)=O` [II-7], the GI50 in test [1], in test [2], in test [3], in test [4], in test [5] and in test [6] was no more than 50 nM each time.
